The record followed here is patent publication US11214803B2, “Modulators of YAP1 expression” (Ionis Pharmaceuticals, Inc., priority 2019, dated 2022).

This data set has as its system Yap1 mRNA. Description: Antisense inhibition of human Yap1 in A-431 cells by cEt gapmers, single dose (Example 2, RTS4814). The class given is cell-based. The method, boiled down: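 Free uptake, 2,000 nM, ~48 h, A-431 at 5,000 cells/well. Readout: RT-qPCR (RTS4814), RIBOGREEN-normalized, % UTC. 16-mer 3-10-3 cEt gapmers, full PS backbone, all C as 5-methylcytosine.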

Where [1] appears, read: Table 21, Yap1 mRNA, percent of untreated control, 3-10-3 cEt gapmers targeting SEQ ID NO.: 1 and 2.
Setting [2] is: Table 23, Yap1 mRNA as percent of untreated control, 3-10-3 cEt gapmers, single dose.
Where [3] appears, read: Table 25, Yap1 mRNA as percent of untreated control, 3-10-3 cEt gapmers targeting SEQ ID NO.: 1, and 2.
Where [4] appears, read: A-431 cells, 5,000 cells per well, free uptake, 2,000 nM modified oligonucleotide, approx. 48 hours, RTS4814, normalized to RIBOGREEN, Table 4, asterisk (*) = targets amplicon region of primer probe set.
The mark [5] stands for this setting: Table 5, A-431 cells, 5,000 cells per well, free uptake, 2,000 nM modified oligonucleotide, approx. 48 hours, RTS4814, normalized to RIBOGREEN, Yap1 mRNA relative to untreated control cells.
Where [6] appears, read: Table 20, Yap1 mRNA, percent of untreated control, 3-10-3 cEt gapmers targeting SEQ ID NO.: 1 and 2.
[7] abbreviates: Table 32, Yap1 mRNA, percent of untreated control, 3-10-3 cEt gapmers targeting SEQ ID NO.: 1, and 2.
Where [8] appears, read: Yap1 mRNA as percent of untreated control, A-431 cells, 3-10-3 cEt gapmers targeting SEQ ID NO.: 1, and 2, Table 30.
The mark [9] stands for this setting: Table 19, A-431 cells, 5,000 cells per well, free uptake, 2,000 nM modified oligonucleotide, approx. 48 hours, RTS4814, normalized to RIBOGREEN, Yap1 mRNA as percent of untreated control.
[10] abbreviates: Table 6, A-431 cells, 5,000 cells per well, free uptake, 2,000 nM modified oligonucleotide, approx. 48 hours, RTS4814, normalized to RIBOGREEN, Yap1 mRNA relative to untreated control cells.
Setting [11] is: Table 33, Yap1 mRNA, percent of untreated control, 3-10-3 cEt gapmers targeting SEQ ID NO.: 1, and 2.

Strand notation (5' to 3'): a small letter for the sugar, then the base; units joined by * are phosphorothioate-linked, units joined directly phosphodiester-linked; [ ] holds rarer units or linkages, { } end groups; capitals alone tell only the bases. k = constrained ethyl (cEt); [5mC] = 5-methylcytosine; d = 2'-deoxy (DNA)

Consider “1076135 (k[5mC]*kA*kT*dA*dA*dT*dT*dG*dA*d[5mC]*dA*dG*dG*kT*kA*kT; antisense) [Compound 1076135]”, for which the “YAP1 (% UTC)” value under setting [1] is 14 % UTC. On to “1075528 (kA*kT*k[5mC]*dG*dA*dA*dG*dG*dG*d[5mC]*dA*dA*dA*k[5mC]*kT*k[5mC]; antisense) [Compound 1075528]”, for which, for the setting “Table 22, Yap1 mRNA as percent of untreated control, 3-10-3 cEt gapmers, single dose”, the “YAP1 (% UTC)” value was 42 % UTC.

Regarding “1074249 (antisense kT*kG*kA*dT*d[5mC]*dG*dA*dT*dG*dT*dG*dA*dT*kT*kT*kA) [Compound 1074249]”, the “YAP1 (% UTC)” value under setting [2] stood at 23 % UTC.

On to “1075467 (antisense k[5mC]*kA*kT*dT*dA*dA*dT*dG*d[5mC]*d[5mC]*dA*dT*d[5mC]*k[5mC]*kA*kA) [Compound 1075467]”, for which the “YAP1 (% UTC)” value under setting [3] came out at 60 % UTC. On to “1075079 (antisense k[5mC]*kA*k[5mC]*d[5mC]*dA*dA*dA*dA*dG*d[5mC]*dT*dT*dA*kG*kT*kT) [Compound 1075079]”, for which the “YAP1 (% UTC)” value under setting [1] is listed as 40 % UTC. As to “716472 (kG*kT*k[5mC]*dA*dT*dG*d[5mC]*dA*d[5mC]*dA*dT*dT*dA*kT*kG*kA; antisense) [Compound 716472]”, under setting [4], the “YAP1 (% UTC)” value is 78 % UTC. On to “716551 (k[5mC]*kG*k[5mC]*dT*dA*dG*dA*dA*dA*dA*dG*dT*dG*kT*kT*kA; antisense) [Compound 716551]”, for which the “YAP1 (% UTC)” value under setting [5] was 76 % UTC. As to “1074379 (antisense kT*kG*kG*dG*dA*dA*dA*d[5mC]*dG*dG*dT*dT*d[5mC]*kT*kG*k[5mC]) [Compound 1074379]”, under setting [3], the “YAP1 (% UTC)” value was 20 % UTC. With “1074374 (antisense kT*kG*k[5mC]*dT*dT*dT*dG*dG*dT*dT*dG*dA*dT*kA*kG*kT) [Compound 1074374]”, the “YAP1 (% UTC)” value under setting [6] came out at 13 % UTC. Turning to “716431 (kA*kA*kT*dG*dA*dT*dT*dG*dG*dT*dG*dA*dA*k[5mC]*kA*kT; antisense) [Compound 716431]”, the “YAP1 (% UTC)” value under setting [5] stood at 55 % UTC.

As to “1075435 (antisense k[5mC]*kT*kT*dA*dA*dA*d[5mC]*dG*dA*dT*dA*dA*dA*kG*kT*kA) [Compound 1075435]”, under setting [3], the “YAP1 (% UTC)” value was 93 % UTC. Turning to “1074514 (kA*kA*kG*dG*dA*dT*dA*d[5mC]*dA*dT*dT*d[5mC]*d[5mC]*kA*k[5mC]*kT; antisense) [compound 1074514]”, under setting [7], the “YAP1 (% UTC)” value worked out at 25 % UTC. “716422 (kA*kG*kT*dA*dT*d[5mC]*dT*dT*dG*d[5mC]*dT*dG*dG*kA*k[5mC]*kG; antisense) [Compound 716422]”: the “YAP1 (% UTC)” value under setting [5] came out at 39 % UTC. For the substance “1076240 (kA*kT*kT*dA*dA*dA*dA*dG*d[5mC]*dA*dA*dG*dG*kT*kG*k[5mC]; antisense) [compound 1076240]”, the “YAP1 (% UTC)” value under setting [8] worked out at 56 % UTC. On to “716557 (kA*kT*kT*dG*dG*dT*dA*d[5mC]*dT*dA*dT*dA*dT*kA*kT*kA; antisense) [Compound 716557]”, for which, under setting [5], the “YAP1 (% UTC)” value was determined as 80 % UTC. In the case of “1074821 (kG*kA*kA*dA*dA*dG*dT*dG*dT*dT*dA*dA*dG*k[5mC]*kA*k[5mC]; antisense) [Compound 1074821]”, under setting [9], the “YAP1 (% UTC)” value is recorded as 18 % UTC.

For “1076137 (k[5mC]*kA*k[5mC]*d[5mC]*dA*dA*d[5mC]*dA*dA*d[5mC]*d[5mC]*dT*d[5mC]*kA*kT*kG; antisense) [Compound 1076137]”, the “YAP1 (% UTC)” value under setting [2] was 45 % UTC. For “1074320 (antisense kG*kG*k[5mC]*dT*dA*dA*d[5mC]*dT*d[5mC]*d[5mC]*dT*dG*dA*k[5mC]*kA*kT) [compound 1074320]”, the “YAP1 (% UTC)” value under setting [8] was 80 % UTC. On the same count and under the same terms, with “1075696 (kT*kT*kA*d[5mC]*dA*dA*dA*dA*dG*dT*dT*dA*d[5mC]*kT*kG*k[5mC]; antisense) [compound 1075696]” the figure was 28 % UTC. As to “1074565 (antisense kA*k[5mC]*kT*dG*dA*dA*dT*dT*d[5mC]*d[5mC]*dA*dA*dT*k[5mC]*kG*kA) [Compound 1074565]”, the “YAP1 (% UTC)” value under setting [9] is reported as 5 % UTC.

As for “1075495 (antisense k[5mC]*kT*kT*dA*dA*dT*dT*dG*dG*dT*dA*dA*d[5mC]*kT*kG*kA) [Compound 1075495]”, the “YAP1 (% UTC)” value under setting [1] is 19 % UTC. For “716513 (antisense kA*kA*kT*d[5mC]*dT*dT*dA*dA*dT*d[5mC]*dT*dG*dT*kG*kG*k[5mC]) [Compound 716513]”, the “YAP1 (% UTC)” value under setting [10] was 30 % UTC. With “716569 (k[5mC]*kT*k[5mC]*d[5mC]*dT*dT*dA*dA*d[5mC]*d[5mC]*d[5mC]*dG*dG*kG*kT*kT; antisense) [Compound 716569]”, the “YAP1 (% UTC)” value under setting [5] is reported as 115 % UTC. On to “716423 (kG*k[5mC]*kA*dA*dA*dA*dT*dA*dG*dA*dG*dG*dA*kT*kT*kA; antisense) [Compound 716423]”, for which the “YAP1 (% UTC)” value under setting [10] is listed as 43 % UTC.

For “1074353 (antisense kG*kA*k[5mC]*dA*d[5mC]*dT*dG*dT*dA*dG*d[5mC]*dT*dG*k[5mC]*kT*k[5mC]) [compound 1074353]”, the “YAP1 (% UTC)” value (Yap1 mRNA as percent of untreated control, A-431 cells, 3-10-3 cEt gapmers targeting SEQ ID NO.: 1, and 2, Table 31) was determined as 17 % UTC. In the case of “1076563 (k[5mC]*kA*kA*dA*dG*dT*dA*dA*dT*dT*dA*dA*dA*k[5mC]*kG*kA; antisense) [compound 1076563]”, the “YAP1 (% UTC)” value under setting [11] is given as 91 % UTC. “716446 (kG*k[5mC]*kA*d[5mC]*dA*d[5mC]*d[5mC]*d[5mC]*dA*d[5mC]*dA*dA*dA*kA*kT*kT; antisense) [Compound 716446]”: the “YAP1 (% UTC)” value under setting [5] came out at 83 % UTC. On to “1076235 (kT*k[5mC]*kA*dA*dA*dA*dT*dA*dA*dT*d[5mC]*dA*dG*k[5mC]*k[5mC]*k[5mC]; antisense) [Compound 1076235]”, for which, under setting [3], the “YAP1 (% UTC)” value turned out to be 34 % UTC.

For the substance “716558 (k[5mC]*kT*k[5mC]*dT*dT*dA*d[5mC]*dA*dT*d[5mC]*dT*dA*dA*kA*kA*k[5mC]; antisense) [Compound 716558]”, under setting [10], the “YAP1 (% UTC)” value was 81 % UTC.

On to “1076435 (k[5mC]*kG*kT*dA*dA*dA*d[5mC]*dA*dT*d[5mC]*dA*dT*d[5mC]*kT*k[5mC]*kT; antisense) [compound 1076435]”, for which the “YAP1 (% UTC)” value under setting [11] was found to be 12 % UTC.

Regarding “1075946 (kG*k[5mC]*kT*dG*dA*dA*dT*dA*dA*dG*dT*dA*dA*k[5mC]*kT*kT; antisense) [Compound 1075946]”, the “YAP1 (% UTC)” value (Table 24, Yap1 mRNA as percent of untreated control, 3-10-3 cEt gapmers targeting SEQ ID NO.: 1, and 2) was 20 % UTC. As for “1075090 (kG*k[5mC]*kT*dT*dA*dT*dA*dA*dT*d[5mC]*dT*dT*dT*k[5mC]*kA*kG; antisense) [compound 1075090]”, under setting [7], the “YAP1 (% UTC)” value stood at 9 % UTC. In the case of “716568 (kG*kA*kT*dT*dT*dT*dT*dT*d[5mC]*dT*dG*dA*dG*kT*kT*k[5mC]; antisense) [Compound 716568]”, under setting [4], the “YAP1 (% UTC)” value turned out to be 72 % UTC. For the substance “1076491 (antisense kA*kG*k[5mC]*d[5mC]*dA*dA*dA*dA*dT*dA*dG*dG*dT*kG*kA*kG) [Compound 1076491]”, under setting [3], the “YAP1 (% UTC)” value came to 12 % UTC.

On to “1076519 (antisense kA*k[5mC]*kA*d[5mC]*dA*dA*d[5mC]*dA*d[5mC]*dG*dA*d[5mC]*dA*kG*k[5mC]*kA) [Compound 1076519]”, for which the “YAP1 (% UTC)” value under setting [1] was found to be 31 % UTC. As for “716495 (kG*kT*kT*dA*dT*dG*dA*dA*d[5mC]*d[5mC]*d[5mC]*dT*dT*kG*kA*kA; antisense) [Compound 716495]”, under setting [10], the “YAP1 (% UTC)” value is listed as 58 % UTC. Consider “716574 (kT*kA*k[5mC]*dA*d[5mC]*dT*dG*dT*dA*dT*dA*dT*dG*kT*kT*k[5mC]; antisense) [Compound 716574]”, for which the “YAP1 (% UTC)” value under setting [4] is on record as 91 % UTC. For “716347 (kT*kG*k[5mC]*d[5mC]*dT*dT*dT*d[5mC]*d[5mC]*d[5mC]*d[5mC]*dG*d[5mC]*k[5mC]*kT*k[5mC]; antisense) [Compound 716347]”, under setting [5], the “YAP1 (% UTC)” value is 85 % UTC. As to “1074345 (antisense kT*k[5mC]*kT*dG*dA*dG*d[5mC]*dT*dA*dT*dT*dG*dG*kT*k[5mC]*kG) [Compound 1074345]”, the “YAP1 (% UTC)” value under setting [2] turned out to be 8 % UTC. For the substance “1076011 (kA*kT*kA*dT*dA*dA*dA*d[5mC]*dA*dA*dT*dA*dG*k[5mC]*kG*kA; antisense) [Compound 1076011]”, the “YAP1 (% UTC)” value under setting [3] was 61 % UTC. As to “716408 (k[5mC]*kA*k[5mC]*dT*dG*dT*dA*dG*d[5mC]*dT*dG*d[5mC]*dT*k[5mC]*kA*kT; antisense) [Compound 716408]”, the “YAP1 (% UTC)” value under setting [10] turned out to be 54 % UTC.

For “1074802 (kG*kG*k[5mC]*dA*d[5mC]*dT*dA*d[5mC]*dA*dT*dT*dT*dA*kG*kA*kA; antisense) [compound 1074802]”, the “YAP1 (% UTC)” value under setting [7] amounted to 37 % UTC.

As to “1075462 (antisense kG*kT*kT*dT*dA*dT*dA*dG*dA*d[5mC]*dA*dA*dG*kT*k[5mC]*kA) [Compound 1075462]”, the “YAP1 (% UTC)” value under setting [6] is 15 % UTC.
